Measurements from ChEMBL document CHEMBL1157380, “Aplysamine 6, an alkaloidal inhibitor of Isoprenylcysteine carboxyl methyltransferase from the sponge Pseudoceratina sp” (J Nat Prod, 2008).
Active and inactive are the calls of the source. The rule behind the calls is not given here.

Experiments:
[1] = molecular target: T1, Protein-S-isoprenylcysteine O-methyltransferase (Homo sapiens, UniProt O60725); test: Inhibition of Icmt up to 100 uM after 60 mins using [3H]biotin as substrate by artifact assay
T1 sequence (O60725 whole entry): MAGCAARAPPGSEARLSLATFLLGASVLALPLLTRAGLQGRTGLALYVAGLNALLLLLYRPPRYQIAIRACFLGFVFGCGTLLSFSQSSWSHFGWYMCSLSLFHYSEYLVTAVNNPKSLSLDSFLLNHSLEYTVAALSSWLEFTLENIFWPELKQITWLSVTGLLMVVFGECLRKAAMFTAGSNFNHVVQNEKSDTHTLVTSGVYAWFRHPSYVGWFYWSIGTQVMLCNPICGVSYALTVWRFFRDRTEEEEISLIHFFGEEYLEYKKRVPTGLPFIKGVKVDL

[2] = molecular target: T1, Protein-S-isoprenylcysteine O-methyltransferase; test: Inhibition of Icmt using [3H]SAM as substrate

COc1ccc(/C=C/C(=O)NCCc2cc(Br)c(OCCCN)c(Br)c2)cc1Br [APLYSAMINE 6] was tested, and the Activity [1] was “inactive” and the IC50 [2] was 14 µM.
